Reference: patent US10703757B2, “Compounds and methods for CDK8 modulation and indications therefor” (Plexxikon Inc., priority 2016, dated 2020)

How the values were obtained:
[1] = system: CDK8 (phosphorylation of STAT1 at serine 727 in A549 cells); assay: Cell based Phospho-STAT1 assay (IFNγ-stimulated A549 cells, AlphaLISA); settings: Homo sapiens, A549, A549 cells, phospho-STAT1 after IFNγ stimulation
In short: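 A549 cells given serial compound dilutions for 1 h at 37 °C, then stimulated with IFNγ at 10 ng/mL final for 30 min. Lysate STAT1 Ser727 phosphorylation measured by AlphaLISA; % inhibition vs stimulated/unstimulated DMSO controls, IC50 by nonlinear regression.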

[2] = system: CDK8 (TCF/LEF luciferase reporter in HCT116 cells); assay: Cell based TCF/LEF reporter assay (HCT116+TCF/LEF luciferase); settings: Homo sapiens, HCT-116, 24 h
In short: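 HCT116 cells stably carrying a TCF/LEF-luciferase reporter (endogenous mutant β-catenin), seeded overnight, then exposed to serial compound dilutions for 24 h at 37 °C. Luminescence normalized to CellTiter-Fluor viability signal. % inhibition relative to DMSO and 10 uM CCT251545 controls, with IC50 from nonlinear regression.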

`N#CC1CC=C(c2cccn3ncc(-c4ccc(OCC5CCCCO5)cc4)c23)CC1` (stereo not shown) [Compound P-0182, 4-(3-(4-((tetrahydro-2H-pyran-2-yl)methoxy)phenyl)pyrazolo[1,5-a]pyridin-4-yl)cyclohex-3-ene-1-carbonitrile] gave an IC50 [1] of 0.1 to 100 nM and an IC50 [2] of 0.1 to 100 nM.

Work on `Cn1cc(-c2ccc(-c3cnn4cccc(C#CC(C)(C)C#N)c34)cc2)cn1` [Compound P-0273, 2,2-dimethyl-4-(3-(4-(1-methyl-1H-pyrazol-4-yl)phenyl)pyrazolo[1,5-a]pyridin-4-yl)but-3-ynenitrile] yielded an IC50 [1] of 0.1 to 100 nM and an IC50 [2] of 0.1 to 100 nM.

`CC(C)(O)Cn1cc(-c2ccc(-c3cnn4ccnc(C5CCC(C#N)CC5)c34)cc2F)cn1` (stereo not shown) [Compound P-0032, (1s,4s)-4-(3-(3-fluoro-4-(1-(2-hydroxy-2-methylpropyl)-1H-pyrazol-4-yl)phenyl)pyrazolo[1,5-a]pyrazin-4-yl)cyclohexane-1-carbonitrile] was tested, and the IC50 [1] was 0.1 to 100 nM and the IC50 [2] was 0.1 to 100 nM.

Molecule `N#CC1CC=C(c2cccn3ncc(-c4ccc5ncccc5c4)c23)CC1` (stereo not shown) [Compound P-0127, 4-(3-(quinolin-6-yl)pyrazolo[1,5-a]pyridin-4-yl)cyclohex-3-ene-1-carbonitrile] has an IC50 [1] of 0.1 to 100 nM and an IC50 [2] of 0.1 to 100 nM.

`Cc1cc(C)n(-c2ccc(-c3cnn4cccc(N5CCC(C#N)CC5)c34)cc2)n1` [Compound P-0253, 1-(3-(4-(3,5-dimethyl-1H-pyrazol-1-yl)phenyl)pyrazolo[1,5-a]pyridin-4-yl)piperidine-4-carbonitrile] showed an IC50 [1] of 100 to 1000 nM and an IC50 [2] of 100 to 1000 nM.

`CC(C)(O)Cn1cc(-c2ccc(-c3cnn4ccnc(C5CCC(C#N)CC5)c34)c(F)c2)cn1` (stereo not shown) [Compound P-0001, (1s,4s)-4-(3-(2-fluoro-4-(1-(2-hydroxy-2-methylpropyl)-1H-pyrazol-4-yl)phenyl)pyrazolo[1,5-a]pyrazin-4-yl)cyclohexane-1-carbonitrile] showed an IC50 [1] of 0.1 to 100 nM and an IC50 [2] of 0.1 to 100 nM.

Molecule `N#CC1CCC(c2nccn3ncc(-c4ccc(-c5cnn(CC(F)F)c5)cc4)c23)CC1` (stereo not shown) [Compound P-0021, (1s,4s)-4-(3-(4-(1-(2,2-difluoroethyl)-1H-pyrazol-4-yl)phenyl)pyrazolo[1,5-a]pyrazin-4-yl)cyclohexane-1-carbonitrile] has an IC50 [1] of 0.1 to 100 nM and an IC50 [2] of 0.1 to 100 nM.

In the case of `Cn1cc(-c2ccc(-c3cnn4cccc(N5CC6CCC(C5)C6C#N)c34)cc2)cn1` (stereo not shown) [Compound P-0159, 3-(3-(4-(1-methyl-1H-pyrazol-4-yl)phenyl)pyrazolo[1,5-a]pyridin-4-yl)-3-azabicyclo[3.2.1]octane-8-carbonitrile], the IC50 [1] is reported as 100 to 1000 nM and the IC50 [2] is reported as 100 to 1000 nM.

`CS(=O)(=O)CCn1cc(-c2ccc(-c3cnn4ccnc(C5=CCC(C#N)CC5)c34)cc2)cn1` (stereo not shown) [Compound P-0033, 4-(3-(4-(1-(2-(methylsulfonyl)ethyl)-1H-pyrazol-4-yl)phenyl)pyrazolo[1,5-a]pyrazin-4-yl)cyclohex-3-ene-1-carbonitrile] was tested, and the IC50 [1] was 0.1 to 100 nM and the IC50 [2] was 0.1 to 100 nM.

Work on `N#CC1CCC(c2nccn3ncc(-c4ccc(OCCOC5CCOCC5)cc4)c23)CC1` (stereo not shown) [Compound P-0058, (1s,4s)-4-(3-(4-(2-((tetrahydro-2H-pyran-4-yl)oxy)ethoxy)phenyl)pyrazolo[1,5-a]pyrazin-4-yl)cyclohexane-1-carbonitrile] yielded an IC50 [1] of 0.1 to 100 nM and an IC50 [2] of 0.1 to 100 nM.

With `CC(C)(C#Cc1cccn2ncc(-c3ccc(-c4cnn(CC5COC5)c4)cc3)c12)C(N)=O` [Compound P-0470, 2,2-dimethyl-4-(3-(4-(1-(oxetan-3-ylmethyl)-1H-pyrazol-4-yl)phenyl)pyrazolo[1,5-a]pyridin-4-yl)but-3-ynamid] the IC50 [1] was 0.1 to 100 nM and the IC50 [2] was 0.1 to 100 nM.

`N#CC1CC=C(c2nccn3ncc(-c4ccc(N5CCOCC5)c(F)c4)c23)CC1` (stereo not shown) [Compound P-0102, 4-(3-(3-fluoro-4-morpholinophenyl)pyrazolo[1,5-a]pyrazin-4-yl)cyclohex-3-ene-1-carbonitrile] showed an IC50 [1] of 0.1 to 100 nM and an IC50 [2] of 0.1 to 100 nM.

`CC(C)(C#Cc1cccn2ncc(-c3ccc(-c4cnn(CC5CC5)c4)cc3)c12)C(N)=O` [Compound P-0463, 4-(3-(4-(1-(cyclopropylmethyl)-1H-pyrazol-4-yl)phenyl)pyrazolo[1,5-a]pyridin-4-yl)-2,2-dimethylbut-3-ynamide] gave an IC50 [1] of 0.1 to 100 nM and an IC50 [2] of 0.1 to 100 nM.

With `N#CC1CCN(c2cccn3ncc(-c4ccc(C(=O)N5CCCC5)cc4)c23)CC1` [Compound P-0257, 1-(3-(4-(pyrrolidine-1-carbonyl)phenyl)pyrazolo[1,5-a]pyridin-4-yl)piperidine-4-carbonitrile] the IC50 [1] was 100 to 1000 nM and the IC50 [2] was 100 to 1000 nM.

Molecule `CC(C)(C#Cc1cccn2ncc(-c3ccc(-c4cnn(CCS(C)(=O)=O)c4)cc3)c12)C(N)=O` [Compound P-0464, 2,2-dimethyl-4-(3-(4-(1-(2-(methylsulfonyl)ethyl)-1H-pyrazol-4-yl)phenyl)pyrazolo[1,5-a]pyridin-4-yl)but-3-ynamide] has an IC50 [1] of 0.1 to 100 nM and an IC50 [2] of 0.1 to 100 nM.

`N#CC1CCN(c2cccn3ncc(-c4ccc(S(=O)(=O)N5CCOCC5)cc4)c23)CC1` [Compound P-0255, 1-(3-(4-(morpholino-sulfonyl)phenyl)pyrazolo[1,5-a]pyridin-4-yl)piperidine-4-carbonitrile] was tested, and the IC50 [1] was 1000 to 10000 nM and the IC50 [2] was 1000 to 10000 nM.

Work on `Cc1cc(-c2cnn3ccnc(C4=CCC(C#N)CC4)c23)ccc1C#N` (stereo not shown) [Compound P-0097, 4-(4-(4-cyanocyclohex-1-en-1-yl)pyrazolo[1,5-a]pyrazin-3-yl)-2-methylbenzonitrile] yielded an IC50 [1] of 0.1 to 100 nM and an IC50 [2] of 100 to 1000 nM.

For `CCn1cc(-c2ccc(-c3cnc4[nH]ccc4c3N3CCC(C#N)CC3)cc2)cn1` [Compound P-0173, 1-(5-(4-(1-ethyl-1H-pyrazol-4-yl)phenyl)-1H-pyrrolo[2,3-b]pyridin-4-yl)piperidine-4-carbonitrile], the IC50 [1] was 0.1 to 100 nM and the IC50 [2] was 0.1 to 100 nM.

`CC(C)(C#Cc1cccn2ncc(-c3ccc(-c4cnn(CC5(C#N)CC5)c4)cc3)c12)C(N)=O` [Compound P-0052, 4-(3-(4-(1-((1-cyanocyclopropyl)methyl)-1H-pyrazol-4-yl)phenyl)pyrazolo[1,5-a]pyridin-4-yl)-2,2-dimethylbut-3-ynamide] was tested, and the IC50 [1] was 0.1 to 100 nM and the IC50 [2] was 0.1 to 100 nM.

`Cn1cc(-c2ccc(-c3cnn4cccc(C#CC(C)(C)C(N)=O)c34)cc2)cn1` [Compound P-0295, 2,2-dimethyl-4-(3-(4-(1-methyl-1H-pyrazol-4-yl)phenyl)pyrazolo[1,5-a]pyridin-4-yl)but-3-ynamide] was tested, and the IC50 [1] was 0.1 to 100 nM and the IC50 [2] was 0.1 to 100 nM.

`COc1ccc2cc(-c3cnc4[nH]ccc4c3C3=CCC(C#N)CC3)ccc2n1` (stereo not shown) [Compound P-0190, 4-(5-(2-methoxyquinolin-6-yl)-1H-pyrrolo[2,3-b]pyridin-4-yl)cyclohex-3-ene-1-carbonitrile] showed an IC50 [1] of 0.1 to 100 nM and an IC50 [2] of 0.1 to 100 nM.

Work on `CC(C)Cn1cc(-c2ccc(-c3cnn4ccnc(C5=CCC(C#N)CC5)c34)cc2)cn1` (stereo not shown) [Compound P-0035, 4-(3-(4-(1-isobutyl-1H-pyrazol-4-yl)phenyl)pyrazolo[1,5-a]pyrazin-4-yl)cyclohex-3-ene-1-carbonitrile] yielded an IC50 [1] of 0.1 to 100 nM and an IC50 [2] of 0.1 to 100 nM.

Work on `N#CC1CC=C(c2nccn3ncc(-c4ccc(-c5cnn(CC(N)=O)c5)cc4)c23)CC1` (stereo not shown) [Compound P-0027, 2-(4-(4-(4-(4-cyanocyclohex-1-en-1-yl)pyrazolo[1,5-a]pyrazin-3-yl)phenyl)-1H-pyrazol-1-yl)acetamide] yielded an IC50 [1] of 0.1 to 100 nM and an IC50 [2] of 0.1 to 100 nM.
